The source made the active and inactive calls. The rule behind the calls is not given here.

Data set [1] is described as follows: Cytotoxicity against Parkinson's disease patient human ONS derived C1200080013 cells assessed as cell death at 30 uM incubated for 24 hrs. It is filed as cell-based. The conditions noted are these: c1200080013, 24 h.
The nature of data set [2]: Induction of cytological phenotypic changes in cellular organelles in Parkinson's disease patient human ONS derived C1200080013 cells assessed as perturbation of auto-phagosomal LC3b marker intensity in inner region of cytoplasm by measuring log2ratio at 30 uM incubated for 24 hrs by anti-LC3b1/335/DAPI staining based fluorescence microscopic analysis. The conditions noted are these: c1200080013, 24 h. The class given is tissue-based.

The nature of data set [3]: Induction of cytological phenotypic changes in cellular organelles in Parkinson's disease patient human ONS derived C1200080013 cells assessed as perturbation of auto-phagosomal features by measuring depletion in LC3b staining intensity at 30 uM incubated for 24 hrs by anti-LC3b1/335/DAPI staining based fluorescence microscopic analysis. The class given is tissue-based. The conditions noted are these: c1200080013, 24 h.

A short description of data set [4]: Induction of cytological phenotypic changes in cellular organelles in Parkinson's disease patient human ONS derived C1200080013 cells assessed as perturbation of mitochondria features by measuring reduction in MitoTracker staining intensity at 30 uM incubated for 24 hrs by MitoTrackerOrange CMTMRos/DAPI staining based fluorescence microscopic analysis. To be noted: c1200080013, 24 h.

Data set [5] in a line: Induction of cytological phenotypic changes in cellular organelles in Parkinson's disease patient human ONS derived C1200080013 cells assessed as perturbation of early endosomal features by measuring reduction in EEA1 staining intensity at 30 uM incubated for 24 hrs by LysoTrackerRed DND-99/anti-EEA1 staining based fluorescence microscopic analysis. The class given is tissue-based. To be noted: c1200080013, 24 h.

The nature of data set [6]: Induction of cytological phenotypic changes in cellular organelles in Parkinson's disease patient human ONS derived C1200080013 cells assessed as changes in features associated with early endosome antigen1 by measuring alteration in EEA1 staining intensity at 10 uM incubated for 24 hrs by LysoTrackerRed DND-99/anti-EEA1 staining based fluorescence microscopic analysis. It is filed as […]. The conditions noted are these: c1200080013, 24 h.

Data set [7] in a line: Induction of cytological phenotypic changes in cellular organelles in Parkinson's disease patient human ONS derived C1200080013 cells assessed as changes in mitochondria marker intensity in inner region of cytoplasm at 20 uM incubated for 24 hrs by MitoTrackerOrange CMTMRos/DAPI staining based fluorescence microscopic analysis. The conditions noted are these: c1200080013, 24 h.

The next data set concerns C1200080013. Put plainly: Induction of cytological phenotypic changes in cellular organelles in Parkinson's disease patient human ONS derived C1200080013 cells assessed as perturbation in mitochondrial features by measuring punctuate and fragmented mitochondrial morphology at 30 uM incubated for 24 hrs by MitoTrackerOrange CMTMRos/DAPI staining based fluorescence microscopic analysis. The class given is functional, cell-based.

Data set [8] is described as follows: Induction of cytological phenotypic changes in cellular organelles in Parkinson's disease patient human ONS derived C1200080013 cells assessed as perturbation of EEA1 marker intensity in cytoplasm by measuring log2ratio at 30 uM incubated for 24 hrs by LysoTrackerRed DND-99/anti-EEA1 staining based fluorescence microscopic analysis. The class given is tissue-based. To be noted: c1200080013, 24 h.

A short description of data set [9]: Induction of cytological phenotypic changes in cellular organelles in Parkinson's disease patient human ONS derived C1200080013 cells assessed as perturbation of mitochondria marker intensity in inner region of cytoplasm by measuring log2ratio at 30 uM incubated for 24 hrs by MitoTrackerOrange CMTMRos/DAPI staining based fluorescence microscopic analysis. The class given is functional.

As to `COc1cc2c(c3c[n+](C)c4c5cc6c(cc5ccc4c13)OCO6)OCO2`, the Activity result in data set [1] is recorded as “Toxic”.
`COc1ccc2c(c1OC)C(C(C)O)N(C)c1c-2ccc2cc3c(cc12)OCO3` (configuration not stated): the “log(ratio)” value in [2] was -0.99.
For the compound `COc1cc(/C=C/C(=O)O)ccc1O[C@@H]1O[C@H](CO)[C@@H](O)[C@H](O)[C@H]1O`, the Activity entry in [3], in [4] and in [5] was “Non-Toxic” throughout.
As for `COc1ccc2c(c[n+](C)c3c4cc5c(cc4ccc23)OCO5)c1OC` [CHELERYTHRINE], the Activity entry in [1] is “Toxic”.
Same read-out and setting: the same measure for `C[n+]1cc2c3c(ccc2c2ccc4cc5c(cc4c21)OCO5)OCO3` [SANGUINARIUM]: “Toxic”.
For `CCN(CC)CCCC(C)Nc1ccnc2cc(Cl)ccc12` (configuration not stated) [CHLOROQUINE], the Activity entry was “Non-Toxic” in [3] and “Toxic” in data set [6].
On to `COc1cc(/C=C/C(=O)O[C@@H]2C[C@](O)(C(=O)O)C[C@@H](O)[C@H]2O)ccc1O`, for which the Activity entry in [3], in [4] and in data set [5] was “Non-Toxic” each time.
Consider `COc1cc(OC)c2c(c[n+](C)c3c4cc5c(cc4ccc23)OCO5)c1OC`, for which the Activity entry in data set [1] is “Toxic”.
As to `C=C(C)[C@H]1Cc2c(ccc3c2O[C@@H]2COc4cc(OC)c(OC)cc4[C@@H]2C3=O)O1` [ROTENONE], the Activity result in data set [7] is listed as “Toxic”.
With `COc1ccc2c(c1OC)C(CO)N(C)c1c-2ccc2cc3c(cc12)OCO3` (configuration not stated), the outcome with C1200080013 was Active. Moreover, the entries for the “log(ratio)” value in data set [8] and in data set [9] were -0.73 and -0.85, respectively.

For the origin of these results see ChEMBL document CHEMBL4665861, “Chemical constituents from Macleaya cordata (Willd) R. Br. and their phenotypic functions against a Parkinson's disease patient-derived cell line” (Bioorg Med Chem, 2020).
